Values quoted from earlier work as cited in PMC10976394 (ACS Omega, 2024).

Conditions: human; cited from earlier work

CC[C@@H]1CN(C(=O)NCC(F)(F)F)C[C@@H]1c1cnc2cnc3[nH]ccc3n12 [upadacitinib]
clearance behavior under the arthritic condition: reduced the clearance behavior
